Measurements reported in paper PMC6450621, “Changes of drug pharmacokinetics mediated by downregulation of kidney organic cation transporters Mate1 and Oct2 in a rat model of hyperuricemia” (PLoS ONE, 2019).
Several values for one entry are separate records, joined by “and”; a condition that tells them apart may be missing. Identical values can stand only once.

How the values were obtained:
[1] = metformin; used for control and hyperuricemic rats; cited from earlier work
[2] = Pharmacokinetic study after intravenous administration in control and hyperuricemic rats (plasma, urine, kidney); conditions: for Kp, kidney: 4 h after iv metformin 30 mg/kg; for CL renal / concentration at 0 min / concentration at 0.5 min / concentration at 2 min / concentration at 5 min / concentration at 30 min / concentration at 60 min / AUC(0-t) / AUC(0-inf) / dose excreted at 10 min / dose excreted at 20 min / dose excreted at 30 min / dose excreted at 60 min / dose excreted at 120 min / dose excreted at 240 min / dose excreted: rat; for CL renal: plasma and urine, CLR; for CL renal / AUC(0-t) / AUC(0-inf): iv; for concentration at 0 min / concentration at 0.5 min / concentration at 2 min / concentration at 5 min / concentration at 30 min / concentration at 60 min / AUC(0-t) / AUC(0-inf): plasma; for concentration at 0 min / concentration at 0.5 min / concentration at 2 min / concentration at 5 min / concentration at 30 min / concentration at 60 min / dose excreted at 10 min / dose excreted at 20 min / dose excreted at 30 min / dose excreted at 60 min / dose excreted at 120 min / dose excreted at 240 min / dose excreted: intravenous; for concentration at 0 min / concentration at 0.5 min / concentration at 2 min / concentration at 5 min / concentration at 30 min / concentration at 60 min: Plasma concentration; for AUC(0-inf): AUCinf; for dose excreted at 10 min / dose excreted at 20 min / dose excreted at 30 min / dose excreted at 60 min / dose excreted at 120 min / dose excreted at 240 min / dose excreted: urine; for dose excreted at 10 min / dose excreted at 20 min / dose excreted at 30 min / dose excreted at 60 min / dose excreted at 120 min / dose excreted at 240 min: Urinary recovery (cumulative); for dose excreted: Urinary Recovery;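 on all read-outs here: Pentobarbital-anesthetized rats with cannulated bladder, jugular plasma, timed urine and saline kidney homogenate assayed by HPLC or LC-MS/MS, Kp as kidney over plasma level at 4 h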
Experimental: (§1) Rats were anesthetized with pentobarbital, and the bladder was cannulated with polyethylene tubing (inside diameter 0.5 mm, outside diameter 0.8 mm). […] Blood was drawn through the jugular vein, and plasma was obtained by centrifugation at 3,000 rpm for 10 min at 4°C. Urine was collected at the designated times. […] All samples were stored at -80°C until measurement.
(§2) If necessary, plasma and urine were diluted 10- to 100-fold and 10- to 10000-fold with saline, respectively, for high-performance liquid chromatography (HPLC) or liquid chromatography/tandem mass spectrometry (LC-MS/MS) measurement. […] Prepared samples were mixed for 1 min and centrifuged at 15,000 rpm for 5 min at 4°C. The resultant supernatant was used for LC-MS/MS analysis. The LC-MS/MS system consisted of a triple-quadrupole mass spectrometer (API 3200^TM, SCIEX, Foster City, CA) coupled with an ultrafast liquid chromatography system (LC-20AD, Shimadzu, Kyoto, Japan). […] For metformin, the mobile phase consisted of 0.1% formic acid and acetonitrile (30 : 70), and the flow rate was 0.4 mL/min.
(§3) The plasma concentration-time data were analyzed by non-compartmental analysis. The area under the plasma concentration-time curve (AUC0-4) was obtained by application of the trapezoidal rule from time 0 to 4 h. AUC from 0 to infinity (AUCinf) was estimated by extrapolation to infinity.

in vivo = conditions: rat, plasma, intravenous
Experimental: as §1, §2, §3

[3] = control rats, 0 min after iv metformin 30 mg/kg or cephalexin 10 mg/kg, individual rat
[4] = control rats, 0.5 min after iv metformin 30 mg/kg or cephalexin 10 mg/kg (creatinine endogenous), individual rat
[5] = control rats, 2 min after iv metformin 30 mg/kg or cephalexin 10 mg/kg, individual rat
[6] = control rats, 5 min after iv metformin 30 mg/kg or cephalexin 10 mg/kg, individual rat
[7] = control rats, 30 min after iv metformin 30 mg/kg or cephalexin 10 mg/kg (creatinine endogenous), individual rat
[8] = control rats, 60 min after iv metformin 30 mg/kg or cephalexin 10 mg/kg (creatinine endogenous), individual rat
[9] = control rats, iv metformin 30 mg/kg, individual rat
[10] = hyperuricemic rats, 0 min after iv metformin 30 mg/kg or cephalexin 10 mg/kg, individual rat
[11] = hyperuricemic rats, 0.5 min after iv metformin 30 mg/kg or cephalexin 10 mg/kg (creatinine endogenous), individual rat
[12] = hyperuricemic rats, 2 min after iv metformin 30 mg/kg or cephalexin 10 mg/kg, individual rat
[13] = hyperuricemic rats, 30 min after iv metformin 30 mg/kg or cephalexin 10 mg/kg (creatinine endogenous), individual rat
[14] = hyperuricemic rats, 60 min after iv metformin 30 mg/kg or cephalexin 10 mg/kg (creatinine endogenous), individual rat
[15] = hyperuricemic rats, iv metformin 30 mg/kg, individual rat
[16] = 30 mg/kg, control rats, iv metformin 30 mg/kg, individual rat
[17] = 30 mg/kg, hyperuricemic rats, iv metformin 30 mg/kg, individual rat
[18] = control rats, iv metformin 30 mg/kg or cephalexin 10 mg/kg, mean n=3
[19] = hyperuricemic rats, iv metformin 30 mg/kg or cephalexin 10 mg/kg, mean n=3

Plasma concentration [2, 3]: 750 µM and 1198 µM
Plasma concentration [2, 4]: 571 µM and 817 µM
Plasma concentration [2, 5]: 293 µM and 304 µM
Plasma concentration [2, 6]: 154 µM and 164 µM
Plasma concentration [2, 7]: 33.2 µM and 34.5 µM
Plasma concentration [2, 8]: 13.0 µM and 12.8 µM
Urinary recovery (cumulative) ([2]; control rats, 60 min after iv metformin 30 mg/kg, individual rat): 44.6 % of dose and 64.4 % of dose
Urinary recovery (cumulative) ([2]; control rats, 120 min after iv metformin 30 mg/kg, individual rat): 63.3 % of dose and 72.5 % of dose
Urinary recovery (cumulative) ([2]; control rats, 240 min after iv metformin 30 mg/kg, individual rat): 72.0 % of dose and 76.4 % of dose
Kp, kidney ([2]; control rats, individual rat): 2.8 and 35.8 and 11.4
AUC0-4 [2, 9]: 5208 µM·min and 5490 µM·min
AUCinf [2, 9]: 5393 µM·min and 5550 µM·min
CLR [2, 9]: 23.6 mL/min/kg and 23.7 mL/min/kg
Plasma concentration [2, 10]: 796 µM and 923 µM
Plasma concentration [2, 11]: 780 µM and 862 µM
Plasma concentration [2, 12]: 336 µM and 407 µM
Plasma concentration ([2]; hyperuricemic rats, 5 min after iv metformin 30 mg/kg or cephalexin 10 mg/kg, individual rat): 86 µM and 154 µM and 193 µM
Urinary recovery (cumulative) ([2]; hyperuricemic rats, 10 min after iv metformin 30 mg/kg, individual rat): 16.7 % of dose and 11.6 % of dose
Urinary recovery (cumulative) ([2]; hyperuricemic rats, 20 min after iv metformin 30 mg/kg, individual rat): 26.1 % of dose and 20.0 % of dose
Plasma concentration [2, 13]: 54.0 µM and 44.1 µM
Urinary recovery (cumulative) ([2]; hyperuricemic rats, 30 min after iv metformin 30 mg/kg, individual rat): 31.6 % of dose and 27.5 % of dose
Plasma concentration [2, 14]: 26.4 µM and 27.5 µM
Urinary recovery (cumulative) ([2]; hyperuricemic rats, 60 min after iv metformin 30 mg/kg, individual rat): 41.1 % of dose and 37.0 % of dose
Urinary recovery (cumulative) ([2]; hyperuricemic rats, 120 min after iv metformin 30 mg/kg, individual rat): 49.6 % of dose and 47.8 % of dose
Urinary recovery (cumulative) ([2]; hyperuricemic rats, 240 min after iv metformin 30 mg/kg, individual rat): 63.2 % of dose and 59.1 % of dose
Kp, kidney ([2]; hyperuricemic rats, individual rat): 94.7 and 122.2 and 54.1
AUC0-4 [2, 15]: 7033 µM·min and 4854 µM·min
AUCinf [2, 15]: 7159 µM·min and 4997 µM·min
CLR [2, 15]: 14.3 mL/min/kg and 23.7 mL/min/kg
(CLR/fu)/CLInulin Fold Change ([2]; hyperuricemic vs control rats): 1.00
AUC0-4 Fold Change ([2]; hyperuricemic vs control rats): 1.10
AUCinf Fold Change ([2]; hyperuricemic vs control rats): 1.10
CLR Fold Change ([2]; hyperuricemic vs control rats): 0.80
Kp, kidney Fold Change ([2]; hyperuricemic vs control rats): 5.44
Urinary Recovery Fold Change ([2]; hyperuricemic vs control rats): 0.85
CL renal [2, 16]: 21.7 mL/min/kg
CL renal [2, 17]: 16.8 mL/min/kg
CL renal ([2]; control rats, iv metformin 30 mg/kg or cephalexin 10 mg/kg, creatinine endogenous, mean n=3): 23 mL/min/kg
CL renal ([2]; hyperuricemic rats, iv metformin 30 mg/kg or cephalexin 10 mg/kg, creatinine endogenous, mean n=3): 18.3 mL/min/kg
concentration at 0 min [2, 3]: 1270 µM
concentration at 0 min ([2]; control rats, 0 min after iv metformin 30 mg/kg or cephalexin 10 mg/kg, mean n=3): 1070 µM
concentration at 0.5 min [2, 4]: 871 µM
concentration at 0.5 min ([2]; control rats, 0.5 min after iv metformin 30 mg/kg or cephalexin 10 mg/kg (creatinine endogenous), mean n=3): 753 µM
concentration at 2 min [2, 5]: 385 µM
concentration at 2 min ([2]; control rats, 2 min after iv metformin 30 mg/kg or cephalexin 10 mg/kg, mean n=3): 328 µM
concentration at 5 min [2, 6]: 159 µM
concentration at 5 min ([2]; control rats, 5 min after iv metformin 30 mg/kg or cephalexin 10 mg/kg, mean n=3): 159 µM
concentration at 30 min [2, 7]: 37 µM
concentration at 30 min ([2]; control rats, 30 min after iv metformin 30 mg/kg or cephalexin 10 mg/kg (creatinine endogenous), mean n=3): 34.9 µM
concentration at 60 min [2, 8]: 14.4 µM
concentration at 60 min ([2]; control rats, 60 min after iv metformin 30 mg/kg or cephalexin 10 mg/kg (creatinine endogenous), mean n=3): 13.4 µM
concentration at 0 min [2, 10]: 676 µM
concentration at 0 min ([2]; hyperuricemic rats, 0 min after iv metformin 30 mg/kg or cephalexin 10 mg/kg, mean n=3): 798 µM
concentration at 0.5 min [2, 11]: 578 µM
concentration at 0.5 min ([2]; hyperuricemic rats, 0.5 min after iv metformin 30 mg/kg or cephalexin 10 mg/kg (creatinine endogenous), mean n=3): 740 µM
concentration at 2 min [2, 12]: 267 µM
concentration at 2 min ([2]; hyperuricemic rats, 2 min after iv metformin 30 mg/kg or cephalexin 10 mg/kg, mean n=3): 337 µM
concentration at 5 min ([2]; hyperuricemic rats, 5 min after iv metformin 30 mg/kg or cephalexin 10 mg/kg, mean n=3): 144 µM
concentration at 30 min [2, 13]: 30 µM
concentration at 30 min ([2]; hyperuricemic rats, 30 min after iv metformin 30 mg/kg or cephalexin 10 mg/kg (creatinine endogenous), mean n=3): 42.7 µM
concentration at 60 min [2, 14]: 20.6 µM
concentration at 60 min ([2]; hyperuricemic rats, 60 min after iv metformin 30 mg/kg or cephalexin 10 mg/kg (creatinine endogenous), mean n=3): 24.9 µM
AUC(0-t) ([2]; 30 mg/kg, AUC0-4, control rats, iv metformin 30 mg/kg, individual rat): 98.2 µM·h
AUC(0-t) ([2]; 30 mg/kg, AUC0-4, hyperuricemic rats, iv metformin 30 mg/kg, individual rat): 107 µM·h
AUC(0-inf) [2, 16]: 99.5 µM·h
AUC(0-inf) [2, 17]: 109 µM·h
AUC(0-t) ([2]; AUC0-4, control rats, iv metformin 30 mg/kg or cephalexin 10 mg/kg, creatinine endogenous, mean n=3): 92.2 µM·h
AUC(0-t) ([2]; AUC0-4, hyperuricemic rats, iv metformin 30 mg/kg or cephalexin 10 mg/kg, creatinine endogenous, mean n=3): 102 µM·h
AUC(0-inf) [2, 18]: 94 µM·h
AUC(0-inf) [2, 19]: 104 µM·h
dose excreted at 10 min ([2]; 30 mg/kg, control rats, 10 min after iv metformin 30 mg/kg, mean n=3): 17.8%
dose excreted at 20 min ([2]; 30 mg/kg, control rats, 20 min after iv metformin 30 mg/kg, mean n=3): 31.3%
dose excreted at 30 min ([2]; 30 mg/kg, control rats, 30 min after iv metformin 30 mg/kg, mean n=3): 41.2%
dose excreted at 60 min ([2]; 30 mg/kg, control rats, 60 min after iv metformin 30 mg/kg, individual rat): 57.8%
dose excreted at 60 min ([2]; 30 mg/kg, control rats, 60 min after iv metformin 30 mg/kg, mean n=3): 55.6%
dose excreted at 120 min ([2]; 30 mg/kg, control rats, 120 min after iv metformin 30 mg/kg, individual rat): 61.5%
dose excreted at 120 min ([2]; 30 mg/kg, control rats, 120 min after iv metformin 30 mg/kg, mean n=3): 65.7%
dose excreted at 240 min ([2]; 30 mg/kg, control rats, 240 min after iv metformin 30 mg/kg, individual rat): 75.1%
dose excreted at 10 min ([2]; 30 mg/kg, hyperuricemic rats, 10 min after iv metformin 30 mg/kg, individual rat): 15.5%
dose excreted at 10 min ([2]; 30 mg/kg, hyperuricemic rats, 10 min after iv metformin 30 mg/kg, mean n=3): 14.6%
dose excreted at 20 min ([2]; 30 mg/kg, hyperuricemic rats, 20 min after iv metformin 30 mg/kg, individual rat): 26.9%
dose excreted at 20 min ([2]; 30 mg/kg, hyperuricemic rats, 20 min after iv metformin 30 mg/kg, mean n=3): 24.3%
dose excreted at 30 min ([2]; 30 mg/kg, hyperuricemic rats, 30 min after iv metformin 30 mg/kg, individual rat): 35.7%
dose excreted at 30 min ([2]; 30 mg/kg, hyperuricemic rats, 30 min after iv metformin 30 mg/kg, mean n=3): 31.6%
dose excreted at 60 min ([2]; 30 mg/kg, hyperuricemic rats, 60 min after iv metformin 30 mg/kg, individual rat): 46%
dose excreted at 60 min ([2]; 30 mg/kg, hyperuricemic rats, 60 min after iv metformin 30 mg/kg, mean n=3): 41.4%
dose excreted at 120 min ([2]; 30 mg/kg, hyperuricemic rats, 120 min after iv metformin 30 mg/kg, individual rat): 56.1%
dose excreted at 120 min ([2]; 30 mg/kg, hyperuricemic rats, 120 min after iv metformin 30 mg/kg, mean n=3): 51.1%
dose excreted at 240 min ([2]; 30 mg/kg, hyperuricemic rats, 240 min after iv metformin 30 mg/kg, individual rat): 67.5%
dose excreted at 240 min ([2]; 30 mg/kg, hyperuricemic rats, 240 min after iv metformin 30 mg/kg, mean n=3): 63.3%
dose excreted [2, 18]: 74.5%
dose excreted [2, 19]: 63.3%
concentration at 15 min (in vivo): 67.3 µM
concentration at 120 min (in vivo): 3.94 µM
SMILES: CN(C)C(=N)N=C(N)N [Metformin, metformin]
fu [1]: 0.85 [27]
Urinary recovery (cumulative) ([2]; control rats, 20 min after iv metformin 30 mg/kg, individual rat): 26.0 % of dose and 21.2 % of dose and 46.7 % of dose
Urinary recovery (cumulative) ([2]; control rats, 30 min after iv metformin 30 mg/kg, individual rat): 43.9 % of dose and 27.9 % of dose and 51.8 % of dose
